Assay results from US20070099887A1, “Photodynamic therapy for the treatment of prostatic conditions” (priority 2003, published 2007).

System: prostate
Test: Photodynamic therapy of the canine prostate after intraprostatic injection of QLT0074 and transurethral 690 nm light
Assay type: in vivo, dogs
Procedure: Eight mature, intact, mixed-breed dogs were premedicated with butorphanol (0.4 mg per kilogram of body weight), acepromazine (0.1 mg/kg), and atropine (0.4 mg/kg), all given by intramuscular injection. Anesthesia was induced with intravenous thiopental sodium (8 mg per 0.4536 kilograms of body weight) and maintained with inhaled isoflurane and oxygen (dosage as required for anesthetic effect). QLT0074 for injection (A-EA6 in U.S. Pat. No. 5,929,105) was reconstituted with Water for Injection to give a stock concentration of 2.0 mg/ml and then diluted with 5% Dextrose in water to a concentration 0.2 mg/ml. Injections of the drug were then delivered to the prostate using a commercially available transurethral injection device (InjecTx™, San Jose, Calif., USA). Two injections of 0.5 ml were given to each left lobe of the prostate and 2 injections of 1.0 ml were given to each right lobe of the prostate. The activation-energy delivery device used comprised: • a cylindrical fibre optic with a 200 μm diameter core, a 25 mm long diffuser, and a power rating of 175 mW/cm (maximum power load, 437.5 mW), • a reflective-cap fibre-centering balloon catheter with a 20 mm treatment window supplied with a guidewire for positioning the device in the urethra, and • a 3 W 690 nm red-light diode laser (AOC, South Plainfield, N.J., USA). The treatment assembly was positioned in the urethra using ultrasonic guidance. Ultrasound was also used to position the needles for four […] intraprostatic injections (two per lobe separated by longitudinally by 1 cm). Each injection was at a depth of between 8 and 12 mm into the prostate. The activation energy was delivered 15 minutes after the last injection. A dose of either 25 J/cm^2, 50 J/cm^2, or 100 J/cm^2 was delivered. […] After seven days the dogs were euthanased and the prostates were harvested.

[1] = prostates harvested after seven days, QLT0074 0.2 mg/ml intraprostatic, injection depth 8-12 mm, 25, 50 or 100 J/cm^2

Structure (SMILES): C=Cc1c(C)c2cc3nc(cc4[nH]c(cc5nc(cc1[nH]2)C(C)=C5CCC(=O)OCCO)c(CCC(=O)OCCO)c4C)[C@@]1(C)C3=CC=C(C(=O)OC)[C@H]1C(=O)OC [QLT0074, Lemuteporfin]
- Bowel, bladder, and prostate sizes (dogs euthanased after seven days, QLT0074 0.2 mg/ml intraprostatic, 25, 50 or 100 J/cm^2): within normal ranges
- Clinical appearance of the dogs during observation (mature intact mixed-breed dogs, QLT0074 0.2 mg/ml, 2 x 0.5 ml left lobe and 2 x 1.0 ml right lobe, 690 nm light 25, 50 or 100 J/cm^2 15 minutes after last injection, observed for one week): clinically normal
- PDT-associated damage in the urethra [1]: no significant PDT-associated damage
- PDT-associated tissue damage in the target tissue (prostates) [1]: evidence of PDT-associated tissue damage in the target tissue
